Data as given in article PMC3692431, “Anticonvulsant Activity of B2, an Adenosine Analog, on Chemical Convulsant-Induced Seizures” (PLoS ONE, 2013).
Where two headings read alike, the source gives them in different places.

Tests used:
KA-induced seizures = KA-induced seizures in mice; format: in vivo; conditions: KA 0.7 µg i.c.v.
Method: (§1) KA was dissolved in saline and the pH was adjusted to neutrality. The final concentration of KA was 0.7 µg/µl, and the convulsant dose was 1 µl (i.c.v.). […] The selective adenosine receptor antagonist DPCPX or SCH58261 was administered (i.p.) 5 min before administration of B2 or vehicle.
The left lateral ventricle (0.6 mm posterior, 1.9 mm lateral, and 2.1 mm ventral to bregma) was cannulated as described. After a 7-day recovery period, mice were injected with either B2 (1.25, 5, 20 mg/kg) or vehicle. Twenty minutes later, an intracerebroventricular injection of KA (0.7 µg/µl, 1 µl) was administered without anesthesia. The animals were then observed for a minimum of 60 min. Seizure severity was determined according to the scoring system described by Racine. At the end of the experiment, cannulae placement was verified.

[1] = tested on: picrotoxin-induced seizures; format: in vivo, mice; conditions: picrotoxin 3.5 mg/kg; for mortality rate: control 50%; for latency to seizure onset prolonged by / number of seizures reduced by: vs control
Method: as §1
(§2) The latency of seizure onset, number of seizures, and mortality rate was recorded for the picrotoxin-injected mice. For the PTZ-injected mice, we recorded the latency of seizure onset, number of seizures, and presence of clonic seizures.

PTZ-induced seizures [2] = experiment: PTZ-induced seizures in mice; format: in vivo; conditions: PTZ 85 mg/kg s.c.; for seizure occurrence: all control mice seized; for latency to seizure onset prolonged by / number of seizures reduced by: vs control
Method: as §2

[3] = molecular target: T1, recombinant human adenosine A1 receptor (Homo sapiens, UniProt P30542); experiment: cAMP accumulation assay in CHO cells expressing A1 receptor; format: cell-based; conditions: CHO cells stably expressing human A1 receptor; forskolin-stimulated cAMP; read-out: EC50, decrease of cellular cAMP level
T1 construct: expressed in transfected cells; host or cells: CHO cells (provided by Professor R. B. Su)
T1 sequence (P30542 1-326): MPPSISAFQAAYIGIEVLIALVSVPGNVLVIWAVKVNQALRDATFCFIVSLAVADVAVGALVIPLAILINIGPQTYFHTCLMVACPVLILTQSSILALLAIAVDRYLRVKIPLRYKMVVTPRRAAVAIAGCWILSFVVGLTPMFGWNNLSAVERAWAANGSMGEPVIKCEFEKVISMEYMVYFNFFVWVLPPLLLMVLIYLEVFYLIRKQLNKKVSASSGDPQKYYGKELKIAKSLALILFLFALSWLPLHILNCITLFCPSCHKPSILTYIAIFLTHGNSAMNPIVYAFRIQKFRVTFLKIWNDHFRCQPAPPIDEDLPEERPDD
Method: Chinese hamster ovary (CHO) cells expressing recombinant human A1/A2A receptors (provided by Professor R. B. Su of the Institute of Pharmacology and Toxicology, Academy of Military Medical Sciences, Beijing, China) were cultured in Dulbecco’s Modified Eagles Medium with the F12 nutrient mixture (DMEM/F12) containing no nucleosides, and with 10% fetal calf serum, penicillin (100 U/ml), streptomycin (100 µg/ml), L-glutamine (2 mM), and Geneticin at 37°C in a 5% CO2/95% atmosphere. The cells used to determine cAMP levels had viability >95%, as assessed by trypan blue exclusion.
Intracellular cyclic adenosine monophosphate (cAMP) levels were measured using a competitive protein binding method. To measure A1/A2A receptor-mediated accumulation of cAMP, cells were grown as confluent monolayers in 24-well cluster dishes. The cells were washed twice with 2 mL of medium containing 20 mM HEPES that had been prewarmed to 37°C, pH 7.4. The cells were then preincubated for 15 min in 0.4 mL fresh medium containing 30 µM of the cAMP phosphodiesterase inhibitor rolipram. B2 was added in 0.1 mL of medium and incubations continued for 15 min. The reaction was then terminated by removing the supernatant, and cells were lysed with the addition of 500 µl of 0.1 M ice-cold HCl. The cell lysate was centrifuged (4,000×g) at 4°C for 10 min. […] Bound radioactivity was measured by liquid scintillation spectrometry.

PTZ-induced seizures [4] = experiment: PTZ-induced seizures with adenosine receptor antagonist pretreatment; format: in vivo, mice; conditions: B2 5 mg/kg; PTZ 85 mg/kg; P<0.05
Method: as §1
Twenty min later, mice were admdinistered with PTZ (85 mg/kg).

[5] = tested on: c-Fos expression in the hippocampus; experiment: PTZ-induced c-Fos expression, western blot; format: in vivo, mice; conditions: B2 5 mg/kg + PTZ 85 mg/kg, 2 h, PTZ alone 8 times
Method: Mice were injected with either B2 (5 mg/kg) or vehicle 20 min before administration of PTZ (85 mg/kg). Two hours later, mice were either anesthetized for c-Fos analysis using immunohistochemistry or decapitated or western blotting.
Mice were decapitated and the hippocampus was quickly dissected on ice. The hippocampus was then homogenized in 20 volumes of cell lysis buffer. The homogenates were incubated on ice for 15 min and centrifuged at 12000×g for 5 min at 4°C. The supernatant containing the crude nuclear extract was collected and the protein content estimated using a Bradford assay. Protein samples […] were electrophoresed in 10% SDS-PAGE at 150 V for 3 h. The samples were then electroblotted onto nitrocellulose membranes at 20 V. The membranes were blocked using 5% dry non-fat milk in 0.1% TBST solution, and incubated overnight on a shaker with anti-c-Fos rabbit antibody (SC-52g) diluted 1∶800 (Santa Cruz Biotechnology). On the following day, the blots were washed using 0.1% TBST solution and incubated for 2 h with anti-rabbit peroxidase-conjugated secondary antibody. The blots were then washed using 0.1% TBST solution. After adding super ECL plus solution, the protein bands were detected using ECL (Fuji Digital Science), as described by the manufacturer. The optical density of the intensity of the bands was measured using Gel Pro Analyzer (version 4.0).

PC12 cell = tested on: PC12 cell; set-up: method as in PMID 22242450; conditions: cited from earlier work

## COc1cc(CNc2ncnc3c2ncn3[C@@H]2O[C@H](CO)[C@@H](O)[C@H]2O)ccc1O [B2, N^6-(3-methoxyl-4-hydroxybenzyl) adenine riboside]
KA-induced seizures; B2 1.25 mg/kg i.p.
  average seizure duration: 5.3 ± 0.8 min
KA-induced seizures; B2 5 mg/kg i.p.
  average seizure duration: 3.7 ± 0.7 min
KA-induced seizures; B2 20 mg/kg i.p.
  average seizure duration: 3.3 ± 1.0 min
[1]; B2 1.25 mg/kg i.p.
  mortality rate: 25%
  latency to seizure onset prolonged by: 64%
  number of seizures reduced by: 18%
[1]; B2 5 mg/kg i.p.
  mortality rate: 13%
  latency to seizure onset prolonged by: 242%
  number of seizures reduced by: 64%
[1]; B2 20 mg/kg i.p.
  mortality rate: 25%
  latency to seizure onset prolonged by: 183%
  number of seizures reduced by: 53%
PTZ-induced seizures [2]; B2 1.25 mg/kg i.p.
  seizure occurrence: 70%
  latency to seizure onset prolonged by: 43%
  number of seizures reduced by: 39%
PTZ-induced seizures [2]; B2 5 mg/kg i.p.
  seizure occurrence: 30%
  latency to seizure onset prolonged by: 89%
  number of seizures reduced by: 70%
PTZ-induced seizures [2]; B2 20 mg/kg i.p.
  seizure occurrence: 50%
  latency to seizure onset prolonged by: 93%
  number of seizures reduced by: 62%
[3]
  EC50: 0.18 µM
PTZ-induced seizures [4]
  effect on latency to seizure onset: significantly prolonged
[5]
  c-Fos expression in the hippocampus, times larger than vehicle control group: 1.5 times
PC12 cell
  PC12 cell survival in serum deprivation-induced apoptosis: remarkably increased
